Results published in PubChem BioAssay AID2060500 (Molecular Pharmacology Branch, DTP, NCI, 2025).
pIC50: −log10 of the molar value.

Test system: 596521-263-R-J1-PDC complex spheroids, viability % of control
Experiment: Anticancer human tumor 596521-263-R-J1-PDC patient-derived soft tissue sarcoma cell line growth inhibition [GQUAD]
Details: for pIC50: curve of first compound; for viability, T/C: stronger effect = lower value
How it was run: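 Multi-cell-type spheroids of tumor cells with HUVEC and mesenchymal stem cells, treated with drug combinations. Concentrations descend in half-log steps from near clinical Cmax, or from 10 microM where Cmax is unknown; viability read-out.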

[1] = second compound 0.0316 µM, first compound 0.0316 µM
[2] = second compound 0.0316 µM, first compound 0.316 µM
[3] = second compound 0.1 µM, first compound 0.0316 µM
[4] = second compound 0.1 µM, first compound 0.316 µM
[5] = second compound 0.316 µM, first compound 0.0316 µM
[6] = second compound 0.316 µM, first compound 0.316 µM
[7] = second compound 1 µM, first compound 0.0316 µM
[8] = second compound 1 µM, first compound 0.316 µM
[9] = second compound 3.16 µM, first compound 0.0316 µM
[10] = second compound 3.16 µM, first compound 0.316 µM
[11] = second compound 10 µM, first compound 0.0316 µM
[12] = second compound 10 µM, first compound 0.316 µM
[13] = second compound 0.0316 µM, first compound 0.1 µM
[14] = second compound 0.0316 µM, first compound 1 µM
[15] = second compound 0.0316 µM, first compound 3.16 µM
[16] = second compound 0.0316 µM, first compound 10 µM
[17] = second compound 0.1 µM, first compound 0.1 µM
[18] = second compound 0.1 µM, first compound 1 µM
[19] = second compound 0.1 µM, first compound 3.16 µM
[20] = second compound 0.1 µM, first compound 10 µM
[21] = second compound 0.316 µM, first compound 0.1 µM
[22] = second compound 0.316 µM, first compound 1 µM
[23] = second compound 0.316 µM, first compound 3.16 µM
[24] = second compound 0.316 µM, first compound 10 µM
[25] = second compound 1 µM, first compound 0.1 µM
[26] = second compound 1 µM, first compound 1 µM
[27] = second compound 1 µM, first compound 3.16 µM
[28] = second compound 1 µM, first compound 10 µM
[29] = second compound 3.16 µM, first compound 0.1 µM
[30] = second compound 3.16 µM, first compound 1 µM
[31] = second compound 3.16 µM, first compound 3.16 µM
[32] = second compound 3.16 µM, first compound 10 µM
[33] = second compound 10 µM, first compound 0.1 µM
[34] = second compound 10 µM, first compound 1 µM
[35] = second compound 10 µM, first compound 3.16 µM
[36] = second compound 10 µM, first compound 10 µM
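Also: spheroids exposed to drugs for 7 days before viability reading.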
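For viability, T/C in this document: 100% = DMSO vehicle control viability.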

Cc1[nH]c2ccccc2c1CCNCc1ccc(/C=C/C(=O)NO)cc1 + Cc1cnc(CNC(=O)c2c(=O)c3ccc(N4CCCN(C)CC4)nc3n3c2sc2ccccc23)cn1
pIC50 (second compound 0.0316 µM): 7.35 | pIC50 (second compound 0.1 µM): 7.24 | pIC50 (second compound 0.316 µM): 7.31 | pIC50 (second compound 1 µM): 7.40 | pIC50 (second compound 3.16 µM): 7.73 | pIC50 (second compound 10 µM): > 9.00 | viability, T/C (second compound 0.0316 µM, first compound 0.000999 µM): 103% | viability, T/C (second compound 0.0316 µM, first compound 0.00316 µM): 88.9% | viability, T/C (second compound 0.0316 µM, first compound 0.00999 µM): 83.1% | viability, T/C [1]: 58.4% | viability, T/C (second compound 0.0316 µM, first compound 0.0999 µM): 29.2% | viability, T/C [2]: 2% | viability, T/C (second compound 0.1 µM, first compound 0.000999 µM): 99.9% | viability, T/C (second compound 0.1 µM, first compound 0.00316 µM): 81.8% | viability, T/C (second compound 0.1 µM, first compound 0.00999 µM): 79.7% | viability, T/C [3]: 61.8% | viability, T/C (second compound 0.1 µM, first compound 0.0999 µM): 40.6% | viability, T/C [4]: 2.65% | viability, T/C (second compound 0.316 µM, first compound 0.000999 µM): 83.2% | viability, T/C (second compound 0.316 µM, first compound 0.00316 µM): 73.9% | viability, T/C (second compound 0.316 µM, first compound 0.00999 µM): 67.8% | viability, T/C [5]: 63.3% | viability, T/C (second compound 0.316 µM, first compound 0.0999 µM): 34.3% | viability, T/C [6]: 2.74% | viability, T/C (second compound 1 µM, first compound 0.000999 µM): 65.2% | viability, T/C (second compound 1 µM, first compound 0.00316 µM): 67.5% | viability, T/C (second compound 1 µM, first compound 0.00999 µM): 67.8% | viability, T/C [7]: 48% | viability, T/C (second compound 1 µM, first compound 0.0999 µM): 36.8% | viability, T/C [8]: 0.29% | viability, T/C (second compound 3.16 µM, first compound 0.000999 µM): 49.9% | viability, T/C (second compound 3.16 µM, first compound 0.00316 µM): 54.4% | viability, T/C (second compound 3.16 µM, first compound 0.00999 µM): 54% | viability, T/C [9]: 47.4% | viability, T/C (second compound 3.16 µM, first compound 0.0999 µM): 30.5% | viability, T/C [10]: 0.21% | viability, T/C (second compound 10 µM, first compound 0.000999 µM): 41.9% | viability, T/C (second compound 10 µM, first compound 0.00316 µM): 19.3% | viability, T/C (second compound 10 µM, first compound 0.00999 µM): 43.1% | viability, T/C [11]: 37.8% | viability, T/C (second compound 10 µM, first compound 0.0999 µM): 0.34% | viability, T/C [12]: 0.24%

Nc1ccn(C2OC(CO)C(O)C2(F)F)c(=O)n1 (stereo unspecified) + Cc1cnc(CNC(=O)c2c(=O)c3ccc(N4CCCN(C)CC4)nc3n3c2sc2ccccc23)cn1
pIC50 (second compound 0.0316 µM): 7.10 | pIC50 (second compound 0.1 µM): 6.51 | pIC50 (second compound 0.316 µM): 7.17 | pIC50 (second compound 1 µM): 7.11 | pIC50 (second compound 3.16 µM): > 7.50 | pIC50 (second compound 10 µM): > 7.50 | viability, T/C [1]: 58.3% | viability, T/C [13]: 44.5% | viability, T/C [2]: 49.4% | viability, T/C [14]: 51% | viability, T/C [15]: 47.4% | viability, T/C [16]: 46.8% | viability, T/C [3]: 60.1% | viability, T/C [17]: 51% | viability, T/C [4]: 53.3% | viability, T/C [18]: 44.7% | viability, T/C [19]: 38.6% | viability, T/C [20]: 35.3% | viability, T/C [5]: 61.2% | viability, T/C [21]: 43.9% | viability, T/C [6]: 43.9% | viability, T/C [22]: 49.8% | viability, T/C [23]: 41.6% | viability, T/C [24]: 41.8% | viability, T/C [7]: 59.6% | viability, T/C [25]: 47.6% | viability, T/C [8]: 42% | viability, T/C [26]: 47.6% | viability, T/C [27]: 52.2% | viability, T/C [28]: 43% | viability, T/C [9]: 47.9% | viability, T/C [29]: 41.9% | viability, T/C [10]: 42.2% | viability, T/C [30]: 40.2% | viability, T/C [31]: 40.9% | viability, T/C [32]: 42.6% | viability, T/C [11]: 47% | viability, T/C [33]: 35.5% | viability, T/C [12]: 38.9% | viability, T/C [34]: 39.6% | viability, T/C [35]: 42.7% | viability, T/C [36]: 23.4%

O=C(NO)c1cnc(N2CCN(S(=O)(=O)c3ccc4ccccc4c3)CC2)nc1 + Cc1cnc(CNC(=O)c2c(=O)c3ccc(N4CCCN(C)CC4)nc3n3c2sc2ccccc23)cn1
pIC50 (second compound 0.0316 µM): 6.95 | pIC50 (second compound 0.1 µM): 6.99 | pIC50 (second compound 0.316 µM): 6.96 | pIC50 (second compound 1 µM): 6.98 | pIC50 (second compound 3.16 µM): > 7.50 | pIC50 (second compound 10 µM): > 7.50 | viability, T/C [1]: 74.7% | viability, T/C [13]: 53.5% | viability, T/C [2]: 13% | viability, T/C [14]: 0.6% | viability, T/C [15]: 0.3% | viability, T/C [16]: 0.28% | viability, T/C [3]: 71.5% | viability, T/C [17]: 50.3% | viability, T/C [4]: 17.4% | viability, T/C [18]: 0.78% | viability, T/C [19]: 0.32% | viability, T/C [20]: 0.29% | viability, T/C [5]: 66.5% | viability, T/C [21]: 52.4% | viability, T/C [6]: 19.1% | viability, T/C [22]: 0.46% | viability, T/C [23]: 0.21% | viability, T/C [24]: 0.18% | viability, T/C [7]: 53.9% | viability, T/C [25]: 50.6% | viability, T/C [8]: 19.6% | viability, T/C [26]: 0.17% | viability, T/C [27]: 0.77% | viability, T/C [28]: 1.29% | viability, T/C [9]: 48.6% | viability, T/C [29]: 42.5% | viability, T/C [10]: 16.1% | viability, T/C [30]: 0.13% | viability, T/C [31]: 0.4% | viability, T/C [32]: 0.75% | viability, T/C [11]: 23.6% | viability, T/C [33]: 13.2% | viability, T/C [12]: 0.25% | viability, T/C [34]: 0.16% | viability, T/C [35]: 0.89% | viability, T/C [36]: 0.27%
